Where “and” joins values, the source holds several entries; their conditions need not be identical. Identical values can stand only once. Where a SMILES comes first, the peptide text is derived from it. The star is where a group is joined. X1 = NC(=O)CCOCCOCCOCCOCCOCCOCCOCCOCCOCCOCCOCCOCCOCCOCCOCCOCCOCCOCCOCCOCCOCCOCCOCCOCCOCCOCCOCCOCCN*
Key:
[1] = Dynamic light scattering of peptide solution; format: physicochemical; conditions: aqueous environment; 0.4 mg/ml in PBS
Excerpt: As indicated herein, the CCR3 peptide analog self-assembles in aqueous medium into highly homogenous nanoparticles. Dynamic light scattering analyses indicate that the radius of the instant nanoparticles is in the range of 1 to 100 nm, more specifically about 8 nm (FIG. 1). Based upon the size and composition, the nanoparticles facilitate translocation of the peptide through the plasma membrane and protect the peptide from degradation in the blood/serum or other body fluids. Accordingly, this invention also provides a nanoparticle composition containing the CC3 peptide analog as well as methods of using the nanoparticle composition to antagonize CCR3 and in the treatment of inflammatory diseases such as asthma, and eosinophilic esophagitis.

[2] = system: eosinophil recruitment into the lung airspaces; assay: Triple antigen (DRA) allergic mouse asthma model; format: in vivo
Experimental: Treatment of mice with CCR3 R3-2-1 peptide nanoparticles, scrambled R3-2-3 peptide nanoparticles or vehicle controls was administered i.v. by retro-orbital injection starting on day 11, one day before intranasal DRA allergen challenges on days 12-14 to assess its effect on inhibiting the recruitment of eosinophils into the lung airspaces and airways. Blood, bronchoalveolar lavage (BAL) fluid and lung tissue were harvested on day 15.
In the triple antigen driven allergic mouse model, mice are sensitized and airway-challenged with a combination of aeroallergens including Dust mite, Ragweed and Aspergillus sp. (DRA; Goplen, et al. (2009) J. Allergy Clin. Immunol. 123:925-932). This model recapitulates many of the pathologic features of human asthma, including eosinophil recruitment into the lung and airspaces, eosinophil degranulation, increased expression of Th2 cytokines, airway hyperreactivity (AHR), and airway remodeling (goblet cell metaplasia and mucus overproduction), and airway smooth muscle hyperplasia and subepithelial fibrosis. Using this model, the effectiveness of R3-2-1 in blocking allergen-induced eosinophil recruitment into the airways and development of airway pathologies in mice was evaluated. It was determined whether systemic (i.v.) administration of R3-2-1 nanoparticles has the capacity to inhibit eotaxin-mediated eosinophil recruitment into the airways. Mice subjected to the triple antigen (DRA) protocol were treated with R3-2-1, scrambled peptide (R3-2-3) and vehicle controls via i.v. administration following antigen sensitization, 24 hours prior to the first allergen challenge on Day 11 of the protocol (FIG. 7), and for i.v. routes, repeated before each subsequent allergen challenge.

CCR3 [3] = molecular target: T1, CCR3 (Homo sapiens, UniProt P51677); assay: Chemotaxis assay (Transwell), AML14.3D10-CCR3 cells; format: cell-based; parameters: host or cells: AML14.3D10-CCR3 (eosinophilic myelocytic cell line, kept under G418); conditions: for IC90: 4 hours
T1 sequence (P51677 1-355): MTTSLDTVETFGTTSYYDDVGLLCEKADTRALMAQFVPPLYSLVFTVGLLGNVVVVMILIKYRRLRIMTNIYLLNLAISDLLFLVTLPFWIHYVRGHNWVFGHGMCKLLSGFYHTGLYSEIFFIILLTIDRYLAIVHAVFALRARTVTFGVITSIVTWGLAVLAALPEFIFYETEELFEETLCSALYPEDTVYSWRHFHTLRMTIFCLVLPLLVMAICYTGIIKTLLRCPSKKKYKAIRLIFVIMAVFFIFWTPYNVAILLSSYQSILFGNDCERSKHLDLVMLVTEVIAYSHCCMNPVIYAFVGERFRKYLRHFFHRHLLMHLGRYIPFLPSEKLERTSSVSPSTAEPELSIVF
Experimental: AML14.3D10-CCR3 (ATCC, Manassas, Va.; Daugherty, et al. (1996) J. Exp. Med. 183:2349-2354) were maintained in RPMI-1640 supplemented with 10% FBS, 1.5 g/L sodium bicarbonate, 4.5 g/L glucose, 2 mM L-glutamine, 10 mM HEPES, 1 mM sodium pyruvate, 50 μM β-mercaptoethanol, and 2 mg/ml G418 in a humidified incubator with 5% CO2 at 37° C.
Cell migration was determined using a 96-well […]® system (Corning, Tewksbury, Mass.). […] The two chambers were separated by a polycarbonate filter with 5 μm pores. For AML14.3D10-CCR3 cells, 2×10^5 cells/well were resuspended in RPMI-1640+0.1% BSA and allowed to migrate for 4 hours at 37° C. For blood eosinophils, 1×10^5 cells/well were resuspended in X-VIVO 10+0.5% BSA and allowed to migrate for 3 hours at 37° C. Migrated cells were counted using a Beckman QUANTA SC flow cytometer. All experiments were performed in duplicate. Checkerboard analysis was done to distinguish chemotaxis from chemokinesis.
Primary eosinophils and the stable CCR3+eosinophilic myelocytic cell line, AML14.3D10-CCR3 (Daugherty, et al. (1996) J. Exp. Med. 183:2349-2354) undergo CCR3-mediated chemotaxis induced by multiple chemokines including eotaxin/CCL11, RANTES/CCL5, MCP-4/CCL13, and MEC/CCL28 (Daugherty, et al. (1996) J. Exp. Med. 183:2349-2354; Pan, et al. (2000) J. Immunol. 165:2943-2949).

CCR3 [4] = molecular target: T1, CCR3; assay: CCR3 degradation in cycloheximide-treated AML14.3D10-CCR3 cells, immunoblot; format: cell-based; parameters: host or cells: AML14.3D10-CCR3 (eosinophilic myelocytic cell line, kept under G418); conditions: 10 μM, 8 nM eotaxin or RANTES for 3 hours
Experimental: AML14.3D10-CCR3 cells were resuspended in RPMI-1640+0.1% BSA. Aliquots of 1×10^6 cells were pretreated with 10 μM cycloheximide for 1 hour at 37° C. Some cells were concurrently pretreated with 10 μM R3-2-1, 10 μM MG132, or both for 30 minutes. Pretreated cells were stimulated with 8 nM eotaxin or RANTES for 3 hours to induce receptor degradation. An aliquot of untreated cells were reserved at the start of the experiment to establish baseline CCR3 expression. All cells were then lysed in RIPA buffer and immunoblotted for CCR3 with a polyclonal rabbit anti-CCR3 antibody (Abcam) followed by goat anti-rabbit IgG-HRP secondary antibody (Santa Cruz).

hydrodynamic radius of self-assembled nanospheres [1]: approximately 8 nm
IC50 for inhibition of total number of eosinophils recruited into the lung airspaces ([2]; i.v.): 8.16 mg/kg
chemotactic (agonist) activity by itself (CCR3 [3]; AML14.3D10-CCR3 cells, no chemokine): not chemotactic
IC90 (CCR3 [3]; AML14.3D10-CCR3 cells, chemotaxis to CCL11/Eotaxin-1 (12 nM)): 1750 ± 200 nM
IC90 (CCR3 [3]; AML14.3D10-CCR3 cells, chemotaxis to CCL24/Eotaxin-2 (20 nM)): 890 ± 120 nM
IC90 (CCR3 [3]; AML14.3D10-CCR3 cells, chemotaxis to CCL26/Eotaxin-3 (100 nM)): 780 ± 100 nM
Compound: CC[C@H](C)[C@H](NC(=O)[C@H](Cc1c[nH]c2ccccc12)NC(=O)[C@H](Cc1ccccc1)NC(=O)[C@@H]1CCCN1C(=O)[C@H](CC(C)C)NC(=O)[C@@H](NC(=O)[C@@H](NC(=O)[C@H](CC(C)C)NC(=O)[C@H](Cc1ccccc1)NC(=O)[C@H](CC(C)C)NC(=O)[C@@H](N)CC(C)C)C(C)C)[C@@H](C)O)C(=O)N[C@@H](Cc1c[nH]cn1)C(=O)N[C@@H](Cc1ccc(O)cc1)C(=O)N[C@H](C(=O)N[C@@H](CCCNC(=N)N)C(=O)NCC(=O)N[C@@H](Cc1c[nH]cn1)C(=O)N[C@@H](CC(N)=O)C(=O)N[C@@H](Cc1c[nH]c2ccccc12)C(=O)N[C@H](C(=O)N[C@@H](Cc1ccccc1)C(=O)NCC(=O)N[C@@H](Cc1c[nH]cn1)C(=O)N[C@@H](CC(=O)O)C(=O)N[C@@H](CC(=O)O)C(=O)N[C@@H](CC(=O)O)C(=O)NCCOCCOCCOCCOCCOCCOCCOCCOCCOCCOCCOCCOCCOCCOCCOCCOCCOCCOCCOCCOCCOCCOCCOCCOCCOCCOCCOCCOCCC(N)=O)C(C)C)C(C)C [Peptide R3-2-1] (H-LLFLVTLPFWIHYVRGHNWVFGHDDD-X1; N-terminus assumed)
% Inhibition of eosinophil recruitment (BAL fluid) ([2]; 3 mg/kg i.v.): 19.54 ± 14.81%
% Inhibition of eosinophil recruitment (BAL fluid) ([2]; 6 mg/kg i.v.): 44.24 ± 9.33%
% Inhibition of eosinophil recruitment (BAL fluid) ([2]; 9 mg/kg i.v.): 53.03 ± 10.82%
% Inhibition of eosinophil recruitment (BAL fluid) ([2]; 12 mg/kg i.v., compared to vehicle and R3-2-3 controls): 69.3% and 69.33 ± 4.20%
total number of eosinophils recruited into the lung airspaces ([2]; i.v., BAL fluid): significantly inhibits
tolerance to inhibition of CCL11-induced chemotaxis (CCR3 [3]; 1 μM for 24, 48 or 72 hour, CCL11 12 nM): retains it full inhibitory activity
inhibition of CCR3-mediated chemotaxis induced by Eotaxin/CCL11, RANTES/CCL5 and MEC/CCL28 (CCR3 [3]; AML14.3D10-CCR3 cells, R3-2-1 0.4, 2 or 10 μM): inhibits chemotaxis induced by Eotaxin/CCL11, RANTES/CCL5 and MEC/CCL28 in a dose-dependent fashion
CCR3 degradation induced by eotaxin and RANTES (CCR3 [4]): enhanced CCR3 degradation induced by eotaxin and RANTES
